Reference: patent US20220193029A1, “BRYOSTATIN COMPOUNDS FOR ENHANCEMENT OF IMMUNOTHERAPY” (priority 2019, published 2022)

Columns and labels:
[1] = target: T1, PKCα (Homo sapiens, UniProt P17252); assay: cell-free competitive PKC binding assay with [3H]-phorbol dibutyrate; conditions: competition with [3H]-PDBu, recombinant human PKC isoform
T1 construct: purchased Invitrogen
Method: (§1) Because a prerequisite for PKC pathway involvement is binding to PKC, compounds were initially evaluated for PKC affinity in a cell-free competitive binding assay with tritiated phorbol dibutyrate ([^3H]-PDBu). Assays were performed with representative members of both the conventional (PKCα) and novel (PKCδ) PKC families. Subsequently, compounds were assayed for PKC activation in living cells using an isoform translocation assay.
(§2) To a 50 mL polypropylene tube was added Tris-HCl (pH 7.4, 1 M, 1 mL), KCl (1 M, 2 mL), CaCl2) (0.1 M, 30 μL), and bovine serum albumin (BSA, 40 mg, Sigma-Aldrich). This mixture was diluted to 20 mL with deionized H2O and mixed gently. The buffer was stored on ice until use.
(§3) For every two assays, 3.5 mg phosphatidylserine (Avanti Polar Lipids, porcine, 25 mg/mL CHCl3 solution) was concentrated by removing chloroform under a stream of nitrogen followed by reduced pressure. The solid PS was suspended as vesicles in freshly prepared PKC binding assay buffer (3.5 mL) by sonicating six times for 30 sec, with a 30 sec rest between sonications (Branson Sonifier 250, power=2, 50% duty cycle). The resulting milky cloudy mixture (1 mg/mL) was stored on ice until use.
(§4) Assay PKC was prepared by dissolving a 4 μg aliquot of the indicated recombinant human PKC isoform (Invitrogen) into 11.6 mL of PKC binding assay buffer (this amount is sufficient for two assays). The diluted PKC was stored on ice for immediate use.
(§5) ^3H-PDBu (American Radiolabeled Chemicals, Inc.; 1 mCi/mL acetone solution; specific activity: 20 Ci/mmol) was diluted […] with DMSO. The resulting 500 nM stock solution was further diluted with DMSO to 30 nM.
(§6) Compound dilutions were prepared by serially diluting from a chosen “high” concentration by factors of 3 or 4.
(§7) To a polypropylene tube was added 3.3 mL of 1 mg/mL PS vesicles solution, 11 mL of PKC isoform solution, and 1.1 mL of 30 nM ^3H-PDBu solution were added. The resulting solution was vortexed to mix and stored on ice.
(§8) Materials: • Glass-fiber filters (Whatman GF/B) were prepared by soaking them in a solution of aqueous polyethyleneimine (10% by vol, 18 mL) in deionized water (600 mL) for ≥1 h. • 500 mL “rinsing buffer” of 20 mM Tris, pH 7.4 was cooled on ice for the duration of the incubation period and for the remainder of the assay.
(§9) Triplicate data points were obtained for each analog concentration. For each data point, 280 μL of “Master Mix” Solution and 20 μL of analog compound at a specified concentration were added to a polypropylene tube. […] Maximal ^3H-PDBu binding was assessed in triplicate by substitution of the analog compound with 20 μL DMSO. The solutions were vortexed to mix, incubated at 37° C. for 10 min, and incubated on ice for at least 30 min prior to filtration. Using a Brandel Harvester, the assay contents from each polypropylene tube were vacuum-filtered through polyethylenimine-soaked filters, washing with rinsing buffer (3×) and drying first under vacuum for 5 min and then under ambient conditions for ≥2 h. The resulting filters had circular perforations for each data point, which were removed with forceps and placed in a scintillation vial. Scintillation vials were filled with Bio-Safe II scintillation fluid (5 mL) and measured for radioactivity using a Beckman LS 6000SC scintillation counter. Counts per minute (cpm) were averaged for each triplicate dilution. The data were plotted—cpm vs. log(concentration)—using Prism® by GraphPad Software and an IC50 was determined using that program's built-in one-site competition least squares regression function. Ki values were calculated using the equation: Ki=IC50/(1+([3H−PDBu]/Kd)). The Kd of ^3H-PDBu for PKC isoforms was measured separately via saturation binding experiments under identical conditions.

[2] = target: T2, PKCδ (Homo sapiens, UniProt Q05655); assay: as above; conditions: competition with [3H]-PDBu, recombinant human PKC isoform
T2 construct: purchased Invitrogen
T2 sequence (Q05655 whole entry, canonical isoform): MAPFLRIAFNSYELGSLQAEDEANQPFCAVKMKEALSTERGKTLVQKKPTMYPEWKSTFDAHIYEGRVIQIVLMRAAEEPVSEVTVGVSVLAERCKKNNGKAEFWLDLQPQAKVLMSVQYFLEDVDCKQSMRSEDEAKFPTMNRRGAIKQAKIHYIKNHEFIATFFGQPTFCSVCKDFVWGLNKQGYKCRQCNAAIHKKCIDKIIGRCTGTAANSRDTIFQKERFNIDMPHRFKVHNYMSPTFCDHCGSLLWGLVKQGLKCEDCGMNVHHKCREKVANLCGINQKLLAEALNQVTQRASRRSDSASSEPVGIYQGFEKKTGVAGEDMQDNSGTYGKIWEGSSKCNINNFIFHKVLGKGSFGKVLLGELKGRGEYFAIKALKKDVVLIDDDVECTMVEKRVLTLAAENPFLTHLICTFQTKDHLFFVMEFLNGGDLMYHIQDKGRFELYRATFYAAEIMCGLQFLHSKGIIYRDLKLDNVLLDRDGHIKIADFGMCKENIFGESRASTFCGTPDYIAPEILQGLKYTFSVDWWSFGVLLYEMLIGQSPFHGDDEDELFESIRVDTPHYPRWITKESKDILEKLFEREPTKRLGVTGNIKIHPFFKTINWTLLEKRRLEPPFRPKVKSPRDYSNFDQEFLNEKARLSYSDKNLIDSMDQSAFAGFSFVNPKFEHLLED
Method: as §1, §2, §3, §4, §5, §6, §7, §8
Triplicate data points were obtained for each analog concentration. For each data point, 280 μL of “Master Mix” Solution and 20 μL of analog compound at a specified concentration were added to a polypropylene tube. […] Maximal ^3H-PDBu binding was assessed in triplicate by substitution of the analog compound with 20 μL DMSO. The solutions were vortexed to mix, incubated at 37° C. for 10 min, and incubated on ice for at least 30 min prior to filtration. Using a Brandel Harvester, the assay contents from each polypropylene tube were vacuum-filtered through polyethylenimine-soaked filters, washing with rinsing buffer (3×) and drying first under vacuum for 5 min and then under ambient conditions for ≥2 h. The resulting filters had circular perforations for each data point, which were removed with forceps and placed in a scintillation vial. Scintillation vials were filled with Bio-Safe II scintillation fluid (5 mL) and measured for radioactivity using a Beckman LS 6000SC scintillation counter. Counts per minute (cpm) were averaged for each triplicate dilution. The data were plotted—cpm vs. log(concentration)—using Prism® by GraphPad Software and an IC50 was determined using that program's built-in one-site competition least squares regression function. […] The Kd of ^3H-PDBu for PKC isoforms was measured separately via saturation binding experiments under identical conditions.

[3] = system: PKCδ-GFP fusion protein; assay: PKCδ-GFP translocation assay in living CHO-k1 cells (confocal microscopy); type: cell-based, Chinese hamster; conditions: for concentration* (minimum effective concentration required to induce translocation of PKC-GFP to the membrane) / % Translocation: CHO-k1 cells; for % Translocation: maximum translocation of PKCδ-GFP to the plasma membrane at the concentration printed in the same cell, SUW212: only brief translocation observed
Method: as §1
Chinese hamster ovary factor K1 (CHO-k1, ATCC) cells were cultured in F-12 Kaighn's media (Hyclone, 10% fetal bovine serum, 1% penicillin/streptomycin added, referred to as F-12+/+ below) at 37° C. in an incubator (5% CO2). Cell cultures were maintained by splitting cells 1:3 when they reached ˜75-100% confluence (every 2-3 days) as follows:
1 mL of the cell suspension was then added to 9 mL of fresh F-12+/+ and the sample was sub-cultured until reaching confluence (˜2-3 days).
Cells were counted using a Countess II Automated Cell Counter (Fisher). The cell suspension was diluted to 240,000 cells/mL with fresh F-12+/+ and 2.5 mL of this diluted stock was added to one well in a 6-well plate. The cells were then cultured for 24 hours.
F-12+/+ was aspirated and cells were washed with F-12−/−. 2 mL of fresh F-12−/− was then added to each well, taking care not to disturb adherent cells. For each well of CHO-k1 cells, 12.5 μL Lipofectamine 2000 reagent (Invitrogen) was added to 250 μL Opti-MEM reduced serum media (Invitrogen) in a polypropylene tube and incubated for 20 minutes at RT. Meanwhile, for each well, 4 μg of PKCδ-GFP pDNA and 250 μL Opti-MEM reduced serum media was added to a separate polypropylene tube. 250 μL of the Lipofectamine 2000 suspension was added to the DNA suspension and the solution incubated for 30 minutes at RT. 500 μL of the Lipofectamine/DNA suspension was added to the respective wells of the 6-well plate. The cells were then incubated at 37° C. (5% CO2) for ˜24 hrs.
F-12+/+ was aspirated and cells were washed with F-12−/−. 2.4 mL of fresh F-12−/− was then added to each well, taking care not to disturb adherent cells. A 4 μg aliquot of PKCδ-GFP pDNA was added to PBS (pH 5.5, final volume 100 μL). 5.6 μL of DA 13:11 (2 mM stock in DMSO) was then added to the DNA solution, and the mixture was gently mixed (by flicking) for 20 seconds, at which point it was added directly to the respective wells of the 6-well plate. The cells were then incubated at 37° C. (5% C02) for ˜24 hrs.
After incubation, the media was aspirated and cells were washed with PBS (2.0 mL) and trypsinized (500 μL). The cell suspension was then diluted with 2.0 mL F-12+/+. 200 μL aliquots were added to 3 wells of a Lab-Tek II 4-well chambered coverglass slide (Fisher), producing 4 slides in total, each with three wells of cells. The cell suspension was directly diluted with 600 μL of additional F-12+/+. The resulting samples were incubated for ˜24 hrs. prior to imaging.
Fluorescent images were obtained using a Leica SP8 White Light Confocal microscope and the Leica AF software package. Prior to analysis, media was aspirated and 800 μL of PBS (Hyclone, without Ca^2+ or Mg^2+) supplemented with glucose (10 mM) was added to each well of the chambered coverglass slide. Bryostatin and bryostatin analogs were diluted to the appropriate concentration in 200 μL of 10 mM glucose in PBS. Cells were located for imaging and data was recorded for three wells in parallel, imaging at predetermined positions in each well using adaptive focus control. Cells were imaged at 30 second intervals following the addition of compound (set to t=0) for 20-40 minutes. Data were recorded at room temperature. Images were exported as .lif files and fluorescence intensity was analyzed using FIJI (NIH) software.

[4] = system: PKC; assay: cell-free PKC binding assay, isoform not given; set-up: species or system human
Method: as §1, §4, §9

[5] = system: CD22 surface expression in NALM6 cells; assay: CD22 surface expression assay by flow cytometry; type: cell-based, human; conditions: Homo sapiens, NALM-6; At 1 nM, relative to DMSO control; NALM6 cells; read-out: Fold increase CD22 expression
Method: Cell cultures were maintained between 4×10^5 and 3×10^6 cells/mL according to vendor instructions.
Cell suspension from a confluent T75 flask (Fisher) was transferred to a 15 mL falcon tube and centrifuged at 1100 rpm for 7 minutes. […] Cells were counted using a Countess II Automated Cell Counter (Fisher). […] 199 μL of this stock was added to 24 wells (enough for triplicate measurements for 8 different experimental conditions) in a 96-well plate. […] 1 μL of DMSO or the appropriate stock solution of compound in DMSO was added to each well. Cells were incubated for 24 hours, at which point the cell suspensions were transferred to 1.5 mL Eppendorf tubes and diluted with 1.0 mL of PBS (Hyclone, without Ca^2+ or Mg^2+). Samples were centrifuged at 2000 rpm for 5 min at RT. […] Cells were sub-cultured between 2×10^5 and 3×10^6 cells/mL in 24-well plates for an additional 24 hrs-7 days, at which point CD22 surface expression was assayed by flow cytometry.
Cells from one well were counted using a Countess II Automated Cell Counter (Fisher). ˜200,000-300,000 cells from each well were added to 1.5 mL Eppendorf tubes containing PBS (final volume ˜1.2 mL). The cell suspensions were centrifuged at 1500 rpm for 7 minutes at 4° C. The supernatant was aspirated, and the cell pellet was resuspended in 99 μL of pre-chilled FACS buffer (0.5% w/v BSA in PBS). […] Samples were then diluted with an additional 1.0 mL of FACS buffer and centrifuged at 1500 rpm for 7 minutes at 4° C. […] Cells were stained with DAPI and CD22 surface expression was analyzed using the FACScan Analyzer at the Stanford Shared FACS Facility. Data analysis was performed using FlowJo and Microsoft Excel.

Compound	Ki [1] [nM]	Ki [2] [nM]	concentration* (minimum effective concentration required to induce translocation of PKC-GFP to the membrane) [3] [nM]	% Translocation [3] [%]	sustained translocation of PKC ([3]; at up to 1000 nM)	binding affinity to PKC, in words [4]	activity in the PKC translocation assay at 200 nM ([3]; 200 nM)	cytosolic PKC translocated to the plasma membrane ([3]; 1000 nM, at about 5 minutes) [%]	cytosolic PKC translocated to the plasma membrane ([3]; 200 nM, at 20 minutes) [%]	fold induction at 0.001 µM [5]
C=CCOC(=O)/C=C1\C[C@H]2C[C@]3(O)O[C@H](C[C@@H](O)CC(=O)O[C@@H]([C@@H](C)O)C[C@@H]4C/C(=C\C(=O)OC)[C@H](OC(=O)/C=C/C=C/CCC)[C@@](O)(O4)C(C)(C)/C=C/[C@@H](C1)O2)C[C@H](OC(C)=O)C3(C)C [SUW230]	4.2	9.4	200	65	–	–	–	–	–	–
CCC/C=C/C=C/C(=O)O[C@H]1/C(=C/C(=O)OC)C[C@H]2C[C@H]([C@@H](C)O)OC(=O)C[C@H](O)C[C@@H]3C[C@H](OC(C)=O)C(C)(C)[C@](O)(C[C@@H]4C[C@H](OC(=O)CN(C)C)C[C@H](/C=C/C(C)(C)[C@]1(O)O2)O4)O3 [SUW211]	98	27	1000	20	did not achieve sustained translocation	–	–	–	–	–
CCC/C=C/C=C/C(=O)O[C@H]1/C(=C/C(=O)OC)C[C@H]2C[C@H]([C@@H](C)O)OC(=O)C[C@H](O)C[C@@H]3C[C@H](OC(C)=O)C(C)(C)[C@](O)(C[C@@H]4C/C(=C\C(=O)OCc5ccccc5)C[C@H](/C=C/C(C)(C)[C@]1(O)O2)O4)O3 [SUW220]	16	15	1000	50	–	–	–	–	–	–
CCCC=CC=CC(=O)OC1C(=CC(=O)OC)CC2CC(C(C)O)OC(=O)CC(O)CC3CC(OC(C)=O)C(C)(C)C(O)(CC4CC(OC(=O)CC56CC7CC(CC(C7)C5)C6)CC(C=CC(C)(C)C1(O)O2)O4)O3 (centres unmarked) [SUW209]	1.6	3.5	1000	60	–	high affinity PKC binders	inactive	~70	–	–
CCCCCC#CC(=O)O[C@H]1/C(=C/C(=O)OC)C[C@H]2C[C@H]([C@@H](C)O)OC(=O)C[C@H](O)C[C@@H]3C[C@H](OC(C)=O)C(C)(C)[C@](O)(C[C@@H]4C[C@H](O)C[C@H](/C=C/C(C)(C)[C@]1(O)O2)O4)O3 [SUW204]	–	–	200	25	–	–	–	–	~25	–
C=C1CC2C=CC(C)(C)C3(O)OC(CC(=CC(=O)OC)C3OC(=O)C#CCCCCC)CC(C(C)O)OC(=O)CC(O)CC3CC(OC(C)=O)C(C)(C)C(O)(CC(C1)O2)O3 (centres unmarked) [SUW200]	–	–	200	70	–	–	–	–	–	1.73
